We go through 16 molecules from ChEMBL document CHEMBL1158176, “Flexible computational docking studies of new aminoglycosides targeting RNA 16S bacterial ribosome site” (Eur J Med Chem, 2008).

The assay in a line: Binding affinity to bacterial 16S RNA ribosomal A site by surface plasmon technique. For orientation: Surface plasmon resonance follows binding to a sensor surface in real time, without labels.
On to `NC[C@H]1O[C@H](O[C@H]2[C@@H](NCCNC(=O)[C@H]3O[C@@H](n4ccc(=O)[nH]c4=O)[C@H](O)[C@@H]3O)[C@@H](O)[C@H](N)C[C@@H]2N)[C@H](N)[C@@H](O)[C@@H]1O`, for which the Kd (commonly the free concentration of one partner at which half of the binding sites on the other are occupied at equilibrium, for simple one-to-one binding) was found to be 13 µM. In the case of `NC[C@H]1O[C@H](O[C@H]2[C@@H](NCCNC(=O)[C@H]3O[C@@H](n4ccc(N)nc4=O)[C@H](O)[C@@H]3O)[C@@H](O)[C@H](N)C[C@@H]2N)[C@H](N)[C@@H](O)[C@@H]1O` it was 79 µM; in that of `Cc1cn([C@H]2C[C@H](O)[C@@H](C(=O)NCCN[C@H]3[C@@H](O)[C@H](N)C[C@H](N)[C@H]3O[C@H]3O[C@H](CN)[C@@H](O)[C@H](O)[C@H]3N)O2)c(=O)[nH]c1=O`, 9 µM; in that of `NC[C@H]1O[C@H](O[C@H]2[C@@H](NCCNC(=O)[C@H]3O[C@@H](n4cnc5c(N)ncnc54)[C@H](O)[C@@H]3O)[C@@H](O)[C@H](N)C[C@@H]2N)[C@H](N)[C@@H](O)[C@@H]1O`, 10 µM.

Consider `Cc1cn([C@@H]2O[C@H](C(=O)NCCCCCCN[C@H]3[C@@H](O)[C@H](N)C[C@H](N)[C@H]3O[C@H]3O[C@H](CN)[C@@H](O)[C@H](O)[C@H]3N)[C@@H](O)[C@H]2O)c(=O)[nH]c1=O`, for which the Kd came to 38 µM. In the case of `NC[C@H]1O[C@H](O[C@H]2[C@@H](NCCCCCCNC(=O)[C@H]3O[C@@H](n4ccc(N)nc4=O)[C@H](O)[C@@H]3O)[C@@H](O)[C@H](N)C[C@@H]2N)[C@H](N)[C@@H](O)[C@@H]1O` it was 104 µM; in that of `Cc1cn([C@H]2C[C@H](O)[C@@H](C(=O)NCCCCCCN[C@H]3[C@@H](O)[C@H](N)C[C@H](N)[C@H]3O[C@H]3O[C@H](CN)[C@@H](O)[C@H](O)[C@H]3N)O2)c(=O)[nH]c1=O`, 56 µM. The same measure for `NC[C@H]1O[C@H](O[C@H]2[C@@H](NCCCCCCNC(=O)[C@H]3O[C@@H](n4cnc5c(N)ncnc54)[C@H](O)[C@@H]3O)[C@@H](O)[C@H](N)C[C@@H]2N)[C@H](N)[C@@H](O)[C@@H]1O`: 17 µM; for `Cc1cn([C@H]2C[C@H](O)[C@@H](CSCCO[C@@H]3O[C@H](CO[C@@H]4O[C@H](CN)[C@@H](O)[C@H](O)[C@H]4N)[C@@H](O)[C@H](O)[C@H]3N)O2)c(=O)[nH]c1=O`: 370 µM.

`NC[C@H]1O[C@@H](OC[C@H]2O[C@@H](SCCCCCCSC[C@H]3O[C@@H](n4ccc(=O)[nH]c4=O)[C@H](O)[C@@H]3O)[C@H](N)[C@@H](O)[C@@H]2O)[C@H](N)[C@@H](O)[C@@H]1O` returned a Kd of 1100 µM. In the case of `NC[C@H]1O[C@@H](OC[C@H]2O[C@@H](OC[C@H]3O[C@@H](n4ccc(=O)[nH]c4=O)[C@H](O)[C@@H]3O)[C@H](N)[C@@H](O)[C@@H]2O)[C@H](N)[C@@H](O)[C@@H]1O` it was 2000 µM; in that of `Cc1cn([C@H]2C[C@H](O)[C@@H](CO[C@@H]3O[C@H](CO[C@@H]4O[C@H](CN)[C@@H](O)[C@H](O)[C@H]4N)[C@@H](O)[C@H](O)[C@H]3N)O2)c(=O)[nH]c1=O`, 667 µM; in that of `Cc1cn([C@H]2C[C@H](O)[C@@H](CSCCCCCCS[C@@H]3O[C@H](COC4O[C@H](CN)[C@@H](O)[C@H](O)[C@H]4N)[C@@H](O)[C@H](O)[C@H]3O)O2)c(=O)[nH]c1=O` (stereo partly specified), 400 µM. In the case of `NC[C@H]1O[C@@H](OC[C@H]2O[C@@H](OCCSC[C@H]3O[C@@H](n4ccc(N)nc4=O)[C@H](O)[C@@H]3O)[C@H](N)[C@@H](O)[C@@H]2O)[C@H](N)[C@@H](O)[C@@H]1O` it was 667 µM. In the case of `Cc1cn([C@H]2C[C@H](O)[C@@H](CSCCCCCCS[C@@H]3O[C@H](CN)[C@@H](O)[C@H](O)[C@H]3O)O2)c(=O)[nH]c1=O` it was 117 µM; in that of `NC[C@H]1O[C@@H](SCCCCCCSC[C@H]2O[C@@H](n3ccc(=O)[nH]c3=O)[C@H](O)[C@@H]2O)[C@H](N)[C@@H](O)[C@@H]1O`, 1250 µM.
